Values quoted from earlier work, collected in patent publication US20100136095A1, “Systems for modulating inflammation” (Searete LLC, a limited liability corporation of the State …, priority 2008, published 2010).
Each block holds one compound with its values, some of them ahead of it.

Columns and labels:
[1] = infused at 400 mg over one hour, single agent
[2] = test system: Src family kinases (Src, Lck, Yes, Fyn); settings: at nanomolar concentrations
proteasome = settings: cultured breast cancer cells; disulfiram bound to copper
lethal septic shock = settings: mice

Compound: CCN(CC)CCCC(C)Nc1ccnc2cc(Cl)ccc12.O=P(O)(O)O.O=P(O)(O)O (centres unmarked) [Chloroquine phosphate, 7-chloro-4-[[4-(diethylamino)-1-methylbutyl]amino]quinoline phosphate (1:2)]
tolerability of infusion [1]: without complication

inhibition of CpG-induced Src family kinase activation or its dependent cellular responses (Src family kinase): does not inhibit
Compound: CCN(CC)CCCC(C)Nc1ccnc2cc(Cl)ccc12 (centres unmarked) [Chloroquine]

Compound: Cc1nc(Nc2ncc(C(=O)Nc3c(C)cccc3Cl)s2)cc(N2CCN(CCO)CC2)n1.O [Dasatinib, N-(2-chloro-6-methylphenyl)-2-[[6-[4-(2-hydroxyethyl)-1-piperazinyl]-2-methyl-4-pyrimidinyl]amino]-5-thiazolecarboxamide, monohydrate]
inhibition of Src family kinases (Src, Lck, Yes, Fyn) [2]: inhibits

Compound: CCN(CC)C(=S)SSC(=S)N(CC)CC [Disulfiram, 1-(diethylthiocarbamoyldisulfanyl)-N,N-diethyl-methanethioamide]
proteasomal activity (proteasome): inhibits proteasomal activity

Compound: Cl.Cl.Nc1ccccc1Oc1ccc2c(N)nsc2c1 [Example M62812, 3-amino-6-(2-aminophenoxy)-1,2-benzisothiazole dihydrochloride]
prevention of lethal septic shock (lethal septic shock): prevents lethal septic shock
